± gives the standard deviation of the averaged measurements. Values belong to the compound of their own block, whether it stands above or below them.
Test: TIMS collisional cross section (CCS, N2) of the lipid ion; higher = larger ion cross section
Details: ionization mode: negative, one isomer drawn
Procedure: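 Lipid extracts of human plasma (NIST SRM 1950), mouse liver or HeLa cells were separated by nanoflow C18 LC (30 min gradient) and analysed by TIMS-PASEF on a timsTOF Pro. Ion mobility was calibrated with the Agilent tuning mix (negative mode ions) and converted to collisional cross sections (Mason–Schamp, N2).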

[1] = sample type: Human plasma, ion (formula + adduct): [C46H82NO8P+HCOO] 1-
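Further: lipids from MTBE extraction, five replicate injections per sample, 100 ms TIMS ramp spanning 0.6–1.95 Vs/cm², lipid identity assigned from PASEF MS/MS spectra.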

Structure (SMILES): CCCCC/C=C\CCCCCCCC(=O)OC[C@H](CO)OC(=O)CCCCCCC/C=C\CCCCCCCC [DG 15:1@_18:1_0:0]
TIMS collisional cross section (sample type: Human plasma, ion (formula + adduct): [C36H66O5-H] 1-): 253.8 Å²

Structure (SMILES): CCCCCCCC/C=C\CCCCCCCC(=O)O[C@@H](CO)COC(=O)CCCCCCCCCCCC [DG 13:0_18:1@_0:0]
TIMS collisional cross section (sample type: Mouse Liver, ion (formula + adduct): [C34H64O5+AcO] 1-): 252.3 Å²

Structure (SMILES): CC/C=C\C/C=C\C/C=C\C/C=C\C/C=C\CCCC(=O)O[C@H](COC(=O)CCCCCCC/C=C\C/C=C\CCCCC)COP(=O)([O-])OCC[N+](C)(C)C [PC 18:2_20:5]
TIMS collisional cross section (sample type: Human plasma, ion (formula + adduct): [C46H78NO8P+HCOO] 1-): 294.9 Å²

Structure (SMILES): CC/C=C\C/C=C\C/C=C\C/C=C\C/C=C\CCCC(=O)OCC(O)COP(=O)(O)O (stereo unspecified) [LPA 20:5]
TIMS collisional cross section (sample type: Human plasma, ion (formula + adduct): [C23H37O7P-H] 1-): 206.5 Å²

Structure (SMILES): CC/C=C\C/C=C\C/C=C\C/C=C\C/C=C\C/C=C\CCC(=O)O[C@H](COC(=O)CCCCCCCCC/C=C\C/C=C\CCCCC)COP(=O)(O)OC[C@H](N)C(=O)O [PS 20:2@_22:6]
TIMS collisional cross section (sample type: Mouse Liver, ion (formula + adduct): [C48H78NO10P-H] 1-): 296.6 Å²

Structure (SMILES): CCCCCCCC/C=C\CCCCCCCC(=O)OCC(COP(=O)(O)OCCN)OC(=O)CCCCCCC/C=C\CCCCCCCC (stereo unspecified) [PE 18:1_18:1]
TIMS collisional cross section (sample type: Human plasma, ion (formula + adduct): [C41H78NO8P-H] 1-): 272.3 Å²

Structure (SMILES): CCCCCCCC/C=C\CCCCCCCC(=O)OC(COC(=O)CCCCCCCCCCCCCCC)COP(=O)(O)OCCN (stereo unspecified) [PE 16:0_18:1]
TIMS collisional cross section (sample type: Human plasma, ion (formula + adduct): [C39H76NO8P-H] 1-): 268.4 Å² | TIMS collisional cross section (sample type: Mouse Liver, ion (formula + adduct): [C39H76NO8P-H] 1-): 268.4 Å²

Structure (SMILES): CCCCCCCCCCCCCC(=O)OC[C@H](COP(=O)([O-])OCC[N+](C)(C)C)OC(=O)CCCCCCCCCCCCC [PC 14:0_14:0]
TIMS collisional cross section (sample type: Human plasma, ion (formula + adduct): [C36H72NO8P+HCOO] 1-): 277.1 Å²

Structure (SMILES): CCCCCCCC/C=C\CCCCCCCC(=O)OC(COC(=O)CCCCCCCCCCCCCCCCC)COP(=O)(O)OCCN (stereo unspecified) [PE 18:0_18:1]
TIMS collisional cross section (sample type: Human plasma, ion (formula + adduct): [C41H80NO8P-H] 1-): 274.6 Å²

Structure (SMILES): CCCCC/C=C\C/C=C\CCCCCCCC(=O)O[C@H](CO/C=C\CCCCCCCCCCCCCCCC)COP(=O)(O)OCCN [PE P- 18:0_18:2]
TIMS collisional cross section (sample type: Human plasma, ion (formula + adduct): [C41H78NO7P-H] 1-): 272.4 Å²

Structure (SMILES): CCCCCC/C=C\CCCCCCCCCC(=O)O[C@H](COC(=O)CCCCCCCCCCCCC)COP(=O)([O-])OCC[N+](C)(C)C [PC 14:0_18:1]
TIMS collisional cross section (sample type: Mouse Liver, ion (formula + adduct): [C40H78NO8P+HCOO] 1-): 286 Å²

Structure (SMILES): CCCCC/C=C\C/C=C\CCCCCCCC(=O)O[C@H](COCCCCCCCCCCCCCCCCCC)COP(=O)([O-])OCC[N+](C)(C)C [PC O- 18:0@_18:2]
TIMS collisional cross section (sample type: Mouse Liver, ion (formula + adduct): [C44H86NO7P-CH3] 1-): 276.8 Å²

Structure (SMILES): CCCCC/C=C\C/C=C\C/C=C\C/C=C\C/C=C\CCC(=O)OC[C@@H](O)COP(=O)(O)OCCN [LPE 22:5_0:0]
TIMS collisional cross section (sample type: Human plasma, ion (formula + adduct): [C27H46NO7P-H] 1-): 222.18 ± 0.25 Å² | TIMS collisional cross section (sample type: Mouse Liver, ion (formula + adduct): [C27H46NO7P-H] 1-): 222.05 ± 0.35 Å²

Structure (SMILES): CCCCCCCCCCCCCCCCCCOC[C@H](COP(=O)(O)OCCN)OC(=O)CCCCCCCCCCCCCCCCCC [PE O- 18:0@_19:0]
TIMS collisional cross section (sample type: Human plasma, ion (formula + adduct): [C42H86NO7P+AcO] 1-): 298 Å²

Structure (SMILES): CCCCCCCCCCCCCCCCCC(=O)OC[C@@H](O)COP(=O)(O)OC[C@@H](O)CO [LPG 18:0_0:0]
TIMS collisional cross section (sample type: Human plasma, ion (formula + adduct): [C24H49O9P-H] 1-): 224.9 Å²

Structure (SMILES): CCCC/C=C/C=C/C=C/CCCCCCCC(=O)OC[C@H](COP(=O)([O-])OCC[N+](C)(C)C)OC(=O)CCCCCCC/C=C/C=C/C=C/CCCC [PC 18:3_18:3]
TIMS collisional cross section (sample type: Mouse Liver, ion (formula + adduct): [C44H76NO8P+HCOO] 1-): 289.8 Å²

Structure (SMILES): CCCCC/C=C\C/C=C\C/C=C\C/C=C\CCCCCC(=O)O[C@H](COC(=O)CCCCCCC/C=C\C/C=C\CCCCC)COP(=O)([O-])OCC[N+](C)(C)C [PC 18:2@_22:4]
TIMS collisional cross section (sample type: Mouse Liver, ion (formula + adduct): [C48H84NO8P+HCOO] 1-): 301.7 Å²

Structure (SMILES): CCCCCCCCCCCCCCCCOC[C@H](COP(=O)([O-])OCC[N+](C)(C)C)OC(=O)CCCCCCCCCCCCCCC [PC O- 16:0_16:0]
TIMS collisional cross section (sample type: Human plasma, ion (formula + adduct): [C40H82NO7P+HCOO] 1-): 287.8 Å²

Structure (SMILES): CCCCCC/C=C\CCCCCCCCCCOC[C@@H](O)COP(=O)([O-])OCC[N+](C)(C)C [LPC O- 18:1_0:0]
TIMS collisional cross section (sample type: Human plasma, ion (formula + adduct): [C26H54NO6P+HCOO] 1-): 244 Å²

Other lines, results leading:

TIMS collisional cross section (sample type: Human plasma, ion (formula + adduct): [C43H78NO8P-H] 1-): 276.8 Å² | TIMS collisional cross section (sample type: Mouse Liver, ion (formula + adduct): [C43H78NO8P-H] 1-): 276.57 ± 0.29 Å²
Structure (SMILES): CCCCC/C=C\C/C=C\C/C=C\C/C=C\CCCC(=O)O[C@H](COC(=O)CCCCCCCCCCCCCCCCC)COP(=O)(O)OCCN [PE 18:0_20:4]

TIMS collisional cross section (sample type: Mouse Liver, ion (formula + adduct): [C47H82NO8P+HCOO] 1-): 300.6 Å²
Structure (SMILES): CC/C=C\C/C=C\C/C=C\C/C=C\C/C=C\C/C=C\CCC(=O)O[C@H](COC(=O)CCCCCCCCCCCCCCCC)COP(=O)([O-])OCC[N+](C)(C)C [PC 17:0_22:6]

TIMS collisional cross section [1]: 298.3 Å² | TIMS collisional cross section (sample type: Mouse Liver, ion (formula + adduct): [C46H82NO8P+HCOO] 1-): 297.7 Å²
Structure (SMILES): CCCCC/C=C\C/C=C\C/C=C\C/C=C\CCCC(=O)O[C@H](COC(=O)CCCCCCC/C=C\CCCCCCCC)COP(=O)([O-])OCC[N+](C)(C)C [PC 18:1_20:4]

TIMS collisional cross section (sample type: Human plasma, ion (formula + adduct): [C45H79O13P-H] 1-): 291.9 Å² | TIMS collisional cross section (sample type: Mouse Liver, ion (formula + adduct): [C45H79O13P-H] 1-): 291.3 Å²
Structure (SMILES): CCCCC/C=C\C/C=C\C/C=C\C/C=C\CCCC(=O)OC[C@H](COP(=O)(O)OC1[C@H](O)[C@H](O)C(O)[C@H](O)[C@H]1O)OC(=O)CCCCCCCCCCCCCCC (stereo partly specified) [PI 20:4_16:0]

TIMS collisional cross section (sample type: Human plasma, ion (formula + adduct): [C44H80NO9P+HCOO] 1-): 296.77 ± 1.3 Å² | TIMS collisional cross section (sample type: Mouse Liver, ion (formula + adduct): [C44H80NO9P+HCOO] 1-): 295.67 ± 1.9 Å²
Structure (SMILES): CCCCC/C=C\C[C@H](O)/C=C/C=C\C/C=C\CCCC(=O)O[C@H](COC(=O)CCCCCCCCCCCCCCC)COP(=O)([O-])OCC[N+](C)(C)C [Oxidized PC 16:0_20:4]

TIMS collisional cross section (sample type: Human plasma, ion (formula + adduct): [C40H72NO8P+HCOO] 1-): 277.9 Å²
Structure (SMILES): CC/C=C\C/C=C\C/C=C\C/C=C\CCCCC(=O)O[C@H](COC(=O)CCCCCCCCCCCCC)COP(=O)([O-])OCC[N+](C)(C)C [PC 14:0@_18:4]

TIMS collisional cross section (sample type: Mouse Liver, ion (formula + adduct): [C46H82NO10P-H] 1-): 291.4 Å²
Structure (SMILES): CCCCC/C=C\C/C=C\C/C=C\C/C=C\CCCCCC(=O)OC[C@H](COP(=O)(O)OC[C@H](N)C(=O)O)OC(=O)CCCCCCCCCCCCCCCCC [PS 22:4_18:0]

TIMS collisional cross section [1]: 298.3 Å²
Structure (SMILES): CCCCC/C=C\C/C=C\C/C=C\C/C=C\CCCC(=O)O[C@H](COC(=O)CCCCCCC/C=C\CCCCCCCC)COP(=O)([O-])OCC[N+](C)(C)C [PC 18:1@_20:4]

TIMS collisional cross section (sample type: Human plasma, ion (formula + adduct): [C46H84NO9P+HCOO] 1-): 302.75 ± 1.5 Å² | TIMS collisional cross section (sample type: Mouse Liver, ion (formula + adduct): [C46H84NO9P+HCOO] 1-): 302.3 Å²
Structure (SMILES): CCCCC/C=C\C[C@H](O)/C=C/C=C\C/C=C\CCCC(=O)O[C@H](COC(=O)CCCCCCCCCCCCCCCCC)COP(=O)([O-])OCC[N+](C)(C)C [Oxidized PC 18:0_20:4]

TIMS collisional cross section (sample type: Human plasma, ion (formula + adduct): [C42H78NO8P+AcO] 1-): 295.1 Å²
Structure (SMILES): CCCCC/C=C\C/C=C\C/C=C\CCCCC(=O)O[C@H](COC(=O)CCCCCCCCCCCCCCC)COP(=O)([O-])OCC[N+](C)(C)C [PC 16:0@_18:3]

TIMS collisional cross section (sample type: Human plasma, ion (formula + adduct): [C41H76NO8P+HCOO] 1-): 287.1 Å²
Structure (SMILES): CCCCC/C=C\C/C=C\C/C=C\CCCCC(=O)O[C@H](COC(=O)CCCCCCCCCCCCCC)COP(=O)([O-])OCC[N+](C)(C)C [PC 15:0@_18:3]

TIMS collisional cross section (sample type: Mouse Liver, ion (formula + adduct): [C47H80NO8P-H] 1-): 285.8 Å²
Structure (SMILES): CC/C=C\C/C=C\C/C=C\C/C=C\C/C=C\C/C=C\CCC(=O)O[C@H](COC(=O)CCCCCCCCC/C=C\CCCCCCCC)COP(=O)(O)OCCN [PE 20:1_22:6]

TIMS collisional cross section (sample type: Mouse Liver, ion (formula + adduct): [C44H74NO10P-H] 1-): 283.5 Å²
Structure (SMILES): CC/C=C\C/C=C\C/C=C\C/C=C\C/C=C\C/C=C\CCC(=O)OC[C@H](COP(=O)(O)OC[C@H](N)C(=O)O)OC(=O)CCCCCCCCCCCCCCC [PS 22:6_16:0]

TIMS collisional cross section (sample type: Human plasma, ion (formula + adduct): [C37H66O5-H] 1-): 247.2 Å²
Structure (SMILES): CCCC/C=C\CCCCCCCC(=O)OC[C@H](CO)OC(=O)CCCCCCCCC/C=C\C/C=C\CCCCC [DG 14:1@_20:2_0:0]

TIMS collisional cross section (sample type: Human plasma, ion (formula + adduct): [C42H78NO8P+HCOO] 1-): 288.8 Å²
Structure (SMILES): CCCCC/C=C\C/C=C\C/C=C\CCCCC(=O)O[C@H](COC(=O)CCCCCCCCCCCCCCC)COP(=O)([O-])OCC[N+](C)(C)C [PC 16:0_18:3@]
